Test results as given in ChEMBL document CHEMBL2321663, “Alkaloids from Sri Lankan curry-leaf (Murraya koenigii) display melanogenesis inhibitory activity: structures of karapinchamines A and B” (Bioorg Med Chem, 2013).

Legend:
[1] = biological target: T1, Tyrosinase (Agaricus bisporus) (UniProt O42713); assay: Inhibition of mushroom tyrosinase using L-DOPA as substrate after at 100 uM after 5 mins relative to control
T1 sequence (whole entry): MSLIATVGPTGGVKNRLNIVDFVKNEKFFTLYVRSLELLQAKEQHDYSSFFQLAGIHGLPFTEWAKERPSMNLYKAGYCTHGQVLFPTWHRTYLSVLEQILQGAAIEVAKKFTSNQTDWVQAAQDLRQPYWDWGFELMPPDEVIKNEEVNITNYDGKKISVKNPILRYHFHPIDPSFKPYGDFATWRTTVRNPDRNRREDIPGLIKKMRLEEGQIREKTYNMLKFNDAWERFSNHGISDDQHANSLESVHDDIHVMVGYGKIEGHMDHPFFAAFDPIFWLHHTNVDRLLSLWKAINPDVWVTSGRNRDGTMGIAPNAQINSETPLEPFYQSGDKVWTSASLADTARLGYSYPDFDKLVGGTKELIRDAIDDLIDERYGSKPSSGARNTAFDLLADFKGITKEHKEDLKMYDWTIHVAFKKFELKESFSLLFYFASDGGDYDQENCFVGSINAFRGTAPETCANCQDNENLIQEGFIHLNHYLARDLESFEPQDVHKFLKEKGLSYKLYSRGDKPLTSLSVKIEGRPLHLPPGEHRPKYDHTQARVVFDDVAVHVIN

[2] = biological target: T1, Tyrosinase (Agaricus bisporus); assay: Inhibition of mushroom tyrosinase using L-DOPA as substrate after at 30 uM after 5 mins relative to control
[3] = biological target: T1, Tyrosinase (Agaricus bisporus); assay: Inhibition of mushroom tyrosinase using L-DOPA as substrate after at 10 uM after 5 mins relative to control
[4] = biological target: T1, Tyrosinase (Agaricus bisporus); assay: Inhibition of mushroom tyrosinase using L-DOPA as substrate after at 3 uM after 5 mins relative to control
[5] = biological target: T1, Tyrosinase (Agaricus bisporus); assay: Inhibition of mushroom tyrosinase using L-DOPA as substrate after at 1 uM after 5 mins relative to control
[6] = Cytotoxicity against mouse theophylline-induced B16-4A5 cells assessed as cell viability at 10 uM after 72 hrs by WST8 assay relative to control; format: cell-based; details: read-out: Activity
[7] = Cytotoxicity against mouse theophylline-induced B16-4A5 cells assessed as cell viability at 30 uM after 72 hrs by WST8 assay relative to control; format: cell-based; details: read-out: Activity
[8] = Cytotoxicity against mouse theophylline-induced B16-4A5 cells assessed as cell viability at 3 uM after 72 hrs by WST8 assay relative to control; format: cell-based; details: read-out: Activity
[9] = Cytotoxicity against mouse theophylline-induced B16-4A5 cells assessed as cell viability at 1 uM after 72 hrs by WST8 assay relative to control; format: cell-based; details: read-out: Activity
[10] = Inhibition of theophylline-induced melanogenesis in mouse B16-4A5 cells after 72 hrs by spectrophotometric analysis relative to control; format: functional, cell-based
[11] = Inhibition of theophylline-induced melanogenesis in mouse B16-4A5 cells at 10 uM after 72 hrs by spectrophotometric analysis relative to control; format: functional; details: B16-4A5, 72 h
[12] = Inhibition of theophylline-induced melanogenesis in mouse B16-4A5 cells at 1 uM after 72 hrs by spectrophotometric analysis relative to control; format: functional; details: B16-4A5, 72 h
[13] = Inhibition of theophylline-induced melanogenesis in mouse B16-4A5 cells at 3 uM after 72 hrs by spectrophotometric analysis relative to control; format: functional; details: B16-4A5, 72 h
[14] = Inhibition of theophylline-induced melanogenesis in mouse B16-4A5 cells at 30 uM after 72 hrs by spectrophotometric analysis relative to control; format: functional; details: B16-4A5, 72 h
[15] = Inhibition of theophylline-induced melanogenesis in mouse B16-4A5 cells at 1000 uM after 72 hrs by spectrophotometric analysis relative to control; format: functional; details: B16-4A5, 72 h
[16] = Inhibition of theophylline-induced melanogenesis in mouse B16-4A5 cells at 300 uM after 72 hrs by spectrophotometric analysis relative to control; format: functional; details: B16-4A5, 72 h
[17] = Inhibition of theophylline-induced melanogenesis in mouse B16-4A5 cells at 100 uM after 72 hrs by spectrophotometric analysis relative to control; format: functional; details: B16-4A5, 72 h

Structure (SMILES): CC(C)=CCC/C(C)=C/Cc1c(O)ccc2[nH]c3ccc(C)cc3c12 [EUSTIFOLINE C]
- inhibition [1]: 16.1%
- inhibition [2]: 5.9%
- inhibition [3]: 2.3%
- inhibition [4]: 2.7%
- inhibition [5]: 1%
- viability at 72 h, 10 µM [6]: 79.2%
- viability at 72 h, 30 µM [7]: 9.9%
- viability at 72 h, 3 µM [8]: 96.5%
- viability at 72 h, 1 µM [9]: 104%
- IC50 [10]: 8.3 µM
- inhibition at 10 µM [11]: 55.9%
- inhibition at 1 µM [12]: 19.7%
- inhibition at 3 µM [13]: 25.2%

Structure (SMILES): COc1ccc2c([nH]c3cc(O)c(C)cc32)c1C/C=C(\C)CCC=C(C)C [EUCHRESTINE B]
- inhibition [1]: -1.1%
- inhibition [2]: -6.4%
- inhibition [3]: -4.3%
- inhibition [4]: -4.4%
- inhibition [5]: -6.5%
- viability at 72 h, 10 µM [6]: 83.7%
- viability at 72 h, 30 µM [7]: 1.9%
- viability at 72 h, 3 µM [8]: 102%
- viability at 72 h, 1 µM [9]: 105%
- IC50 [10]: 4.1 µM
- inhibition at 10 µM [11]: 74.2%
- inhibition at 1 µM [12]: 18.2%
- inhibition at 3 µM [13]: 40.6%

Structure (SMILES): COc1cccc2c1[nH]c1c3c(c(C)cc12)OC(C)(CCC=C(C)C)C=C3 (centres undefined)
- inhibition [1]: -0.8%
- inhibition [2]: 2.7%
- inhibition [3]: -2.8%
- inhibition [4]: -2.8%
- inhibition [5]: -1%
- viability at 72 h, 10 µM [6]: 73.8%
- viability at 72 h, 30 µM [7]: 46.3%
- viability at 72 h, 3 µM [8]: 97.3%
- viability at 72 h, 1 µM [9]: 101%
- IC50 [10]: 3.8 µM
- inhibition at 10 µM [11]: 71.8%
- inhibition at 1 µM [12]: 6.8%
- inhibition at 3 µM [13]: 40.4%

Structure (SMILES): CC(C)=CCCC1(C)C=Cc2c(ccc3c2[nH]c2ccc(C)cc23)O1 (centres undefined)
- inhibition [1]: -3.4%
- inhibition [2]: -0.3%
- inhibition [3]: -1.1%
- inhibition [4]: -0.7%
- inhibition [5]: 7.4%
- viability at 72 h, 10 µM [6]: 103%
- viability at 72 h, 30 µM [7]: 63.9%
- viability at 72 h, 3 µM [8]: 117%
- viability at 72 h, 1 µM [9]: 110%
- IC50 [10]: 2.2 µM
- inhibition at 10 µM [11]: 85.2%
- inhibition at 30 µM [14]: 78.4%
- inhibition at 1 µM [12]: 25.9%
- inhibition at 3 µM [13]: 60%

Structure (SMILES): Oc1cccc2[nH]c3ccccc3c12
- inhibition [1]: 3.3%
- inhibition [2]: 0.9%
- inhibition [3]: 0.5%
- inhibition [4]: 0.3%
- inhibition [5]: 0.4%
- viability at 72 h, 10 µM [6]: 104%
- viability at 72 h, 30 µM [7]: 131%
- viability at 72 h, 3 µM [8]: 100%
- viability at 72 h, 1 µM [9]: 101%
- IC50 [10]: 13.5 µM
- inhibition at 10 µM [11]: 36.1%
- inhibition at 30 µM [14]: 66.9%
- inhibition at 1 µM [12]: 24.9%
- inhibition at 3 µM [13]: 32.9%

Structure (SMILES): Cc1cc2c3ccc(O)cc3n3c2c2c1O[C@@]1(C)CC[C@H]([C@H]2C1)C3(C)C (relative stereo)
- inhibition [1]: 20.2%
- inhibition [2]: 15.3%
- inhibition [3]: 3.5%
- inhibition [4]: -0.6%
- inhibition [5]: -1.3%
- viability at 72 h, 10 µM [6]: 76.8%
- viability at 72 h, 30 µM [7]: 71.1%
- viability at 72 h, 3 µM [8]: 94.4%
- viability at 72 h, 1 µM [9]: 101%
- IC50 [10]: 2.9 µM
- inhibition at 10 µM [11]: 66%
- inhibition at 30 µM [14]: 74.3%
- inhibition at 1 µM [12]: 26.9%
- inhibition at 3 µM [13]: 50.8%

Structure (SMILES): COc1ccc2[nH]c3c4c(c(C)cc3c2c1)OC(C)(C)C=C4 [KOENIMBINE]
- inhibition [1]: 4.3%
- inhibition [2]: 1%
- inhibition [3]: -0.1%
- inhibition [4]: -1%
- inhibition [5]: 0.7%
- viability at 72 h, 10 µM [6]: 66.6%
- viability at 72 h, 30 µM [7]: 37.9%
- viability at 72 h, 3 µM [8]: 92.4%
- viability at 72 h, 1 µM [9]: 114%
- IC50 [10]: 1.2 µM
- inhibition at 10 µM [11]: 86.2%
- inhibition at 1 µM [12]: 42.5%
- inhibition at 3 µM [13]: 77%

Structure (SMILES): c1ccc2c(c1)[nH]c1ccccc12 [CARBAZOLE]
- inhibition [1]: 0.1%
- inhibition [2]: 1.7%
- inhibition [3]: -2.2%
- inhibition [4]: -1.8%
- inhibition [5]: 1%
- viability at 72 h, 10 µM [6]: 105%
- viability at 72 h, 30 µM [7]: 94.2%
- viability at 72 h, 3 µM [8]: 108%
- viability at 72 h, 1 µM [9]: 108%
- IC50 [10]: > 100 µM
- inhibition at 10 µM [11]: 36.8%
- inhibition at 30 µM [14]: 33.8%
- inhibition at 1 µM [12]: 31.3%
- inhibition at 3 µM [13]: 33.5%

Structure (SMILES): CC(C)=CCCC1(C)C=Cc2c(c(C)cc3c2[nH]c2ccccc23)O1 (centres undefined) [MAHANIMBINE]
- inhibition [1]: 6.2%
- inhibition [2]: 2.7%
- inhibition [3]: -0.4%
- inhibition [4]: -3.2%
- inhibition [5]: -1.3%
- viability at 72 h, 10 µM [6]: 34.4%
- viability at 72 h, 30 µM [7]: 35.1%
- viability at 72 h, 3 µM [8]: 68.7%
- viability at 72 h, 1 µM [9]: 94.3%
- IC50 [10]: 1.4 µM
- inhibition at 1 µM [12]: 43.3%
- inhibition at 3 µM [13]: 63.9%

Structure (SMILES): OC[C@H]1O[C@@H](Oc2ccc(O)cc2)[C@H](O)[C@@H](O)[C@@H]1O [ARBUTIN]
- inhibition at 1000 µM [15]: 83.7%
- inhibition at 300 µM [16]: 61.5%
- inhibition at 100 µM [17]: 38.1%
- IC50 [10]: 174 µM
- inhibition at 30 µM [14]: 20.4%

Structure (SMILES): COc1ccc2c(c1)[nH]c1c3c(c(C)cc12)O[C@](C)(CCC=C(C)C)C=C3
- inhibition [1]: 4.2%
- inhibition [2]: 0.9%
- inhibition [3]: 0.1%
- inhibition [4]: 0.1%
- inhibition [5]: 0.1%
- viability at 72 h, 10 µM [6]: 94.9%
- viability at 72 h, 30 µM [7]: 66.3%
- viability at 72 h, 3 µM [8]: 98.7%
- viability at 72 h, 1 µM [9]: 105%
- IC50 [10]: 15.7 µM
- inhibition at 10 µM [11]: 40.8%
- inhibition at 30 µM [14]: 58.3%
- inhibition at 1 µM [12]: 10.9%
- inhibition at 3 µM [13]: 8.7%
